From article PMC9944328 (Nature Communications, 2023)
Like-named read-outs stand apart in the source and are kept apart here.

System: SSTR2 mutants
Assay: SSTRs Gi-mediated cAMP inhibition, GloSensor, HEK293, 5 μM forskolin, 15 min room temperature (SSTR2 mutants)
Type: cell-based, human
Parameters: Best-fit Bottom, cAMP inhibition / Best-fit Top, cAMP inhibition / Span, cAMP inhibition / Bottom (best-fit value) / Top (best-fit value) / Span (best-fit value) / Span (best-fit) / Bottom (best-fit) / Top (best-fit) / Best-fit Bottom / Best-fit Top / Best-fit Span / Top / Span: scale not given here
Experimental: The levels of the intracellular 3′, 5′-cyclic AMP (cAMP) were measured by the GloSensor cAMP assay (Promega) as described in the previous studies[28],[41] which has been widely used. The human full-length SSTRs and mutants were cloned into the pcDNA3.1+ vector with a HA signal sequence followed by a Flag tag at the N-terminus. HEK293 cells (ATCC, CRL-1573) were seeded into 6-well microplates at a density of 1.0 × 10^6 cells/well and cultured for 24 h at 37 °C with 5% CO2. Cells were then co-transfected with SSTR wild-type or mutants and GloSensor plasmids. After 24 h of transfection, the cells were dissociated with TrypLE™ Express Enzyme (1X) (Thermo Fisher Scientific) and collected by centrifugation at 500 × g for 5 min. Then the collected cells were suspended in Hank’s balanced salt solution [HBSS (Thermo Fisher Scientific)] supplemented with […] (YEASEN), and then the suspension cells were seeded into 96-well plates with 90 μl/well. After incubating at room temperature for 40 min, 5 μM forskolin and ligands diluted in HBSS were added to each well and the plates were incubated at room temperature for 15 min. […] were measured using the Synergy H1 microplate reader (BioTek) and the data presented are means of at least three independent experiments.

SMILES: C[C@@H](O)[C@@H]1NC(=O)[C@H](CCCCN)NC(=O)[C@@H](Cc2c[nH]c3ccccc23)NC(=O)[C@H](Cc2ccccc2)NC(=O)[C@@H](NC(=O)[C@H](N)Cc2ccccc2)CSSC[C@@H](C(=O)N[C@H](CO)[C@@H](C)O)NC1=O [octreotide]
- Top (best-fit value) (I284A-1, run 1): 116.3
- EC50 (I284A-1, run 1, read-out: EC50 (best-fit value)): 1.36 nM
- Bottom (best-fit value) (I284A-2, run 2): -11.95
- LogEC50 (best-fit value) (I284A-2, run 2): -9.363
- Span (best-fit value) (I284A-2, run 2): 136.5
- Top (best-fit value) (I284A-2, run 2): 124.6
- EC50 (I284A-2, run 2, read-out: EC50 (best-fit value)): 0.433 nM
- Bottom (best-fit value) (I284A-3, run 3): -6.083
- LogEC50 (best-fit value) (I284A-3, run 3): -8.813
- Span (best-fit value) (I284A-3, run 3): 75.58
- Top (best-fit value) (I284A-3, run 3): 69.5
- EC50 (I284A-3, run 3, read-out: EC50 (best-fit value)): 1.54 nM
- Impact on Gi protein pathway (I284ECL3A and K291(7.32)A): relatively small
- Best-fit Bottom (K291A-1): -13.76
- Best-fit Span (K291A-1): 86.2
- Best-fit Top (K291A-1): 72.44
- LogEC50 (K291A-1): -8.384
- EC50 (K291A-1, read-out: EC50): 4 nM
- Best-fit Bottom (K291A-2): -3.629
- Best-fit Span (K291A-2): 91.53
- Best-fit Top (K291A-2): 87.9
- LogEC50 (K291A-2): -8.328
- EC50 (K291A-2, read-out: EC50): 4.7 nM
- Best-fit Bottom (K291A-3): 3.692
- Best-fit Span (K291A-3): 104.2
- Best-fit Top (K291A-3): 107.9
- LogEC50 (K291A-3): -8.123
- EC50 (K291A-3, read-out: EC50): 7.54 nM
- Best-fit Bottom (L290A-1): 32.91
- Best-fit Span (L290A-1): 84.91
- Best-fit Top (L290A-1): 117.8
- LogEC50 (L290A-1): -9.231
- EC50 (L290A-1, read-out: EC50): 0.588 nM
- Best-fit Span (L290A-2): 90.85
- Best-fit Top (L290A-2): 95.5
- LogEC50 (L290A-2): -9.519
- Best-fit Bottom (L290A-3): 2.997
- Best-fit Span (L290A-3): 94.23
- Best-fit Top (L290A-3): 97.22
- LogEC50 (L290A-3): -9.438
- EC50 (L290A-3, read-out: EC50): 0.365 nM
- Gi signaling of mutant (N276(6.55)A): still exerted Gi signaling activation
- Bottom (best-fit) (N276A-1): -14.21
- LogEC50 (best-fit) (N276A-1): -7.981
- Span (best-fit) (N276A-1): 75.87
- Top (best-fit) (N276A-1): 61.65
- EC50 (N276A-1, read-out: EC50 (best-fit)): 10.4 nM
- Bottom (best-fit) (N276A-2): 0.8581
- LogEC50 (best-fit) (N276A-2): -7.561
- Span (best-fit) (N276A-2): 112.9
- Top (best-fit) (N276A-2): 113.7
- EC50 (N276A-2, read-out: EC50 (best-fit)): 27.5 nM
- Bottom (best-fit) (N276A-3): 2.316
- LogEC50 (best-fit) (N276A-3): -7.587
- Span (best-fit) (N276A-3): 109.8
- Top (best-fit) (N276A-3): 112.1
- EC50 (N276A-3, read-out: EC50 (best-fit)): 25.9 nM
- Bottom (best-fit) (P220A-1): 19.71
- LogEC50 (best-fit) (P220A-1): -9.136
- Span (best-fit) (P220A-1): 47.88
- Top (best-fit) (P220A-1): 67.58
- EC50 (P220A-1, read-out: EC50 (best-fit)): 0.732 nM
- Bottom (best-fit) (P220A-2): 10.44
- LogEC50 (best-fit) (P220A-2): -8.311
- Span (best-fit) (P220A-2): 101.1
- Top (best-fit) (P220A-2): 111.6
- EC50 (P220A-2, read-out: EC50 (best-fit)): 4.88 nM
- Bottom (best-fit) (P220A-3): 7.137
- LogEC50 (best-fit) (P220A-3): -8.347
- Span (best-fit) (P220A-3): 101.3
- Top (best-fit) (P220A-3): 108.4
- EC50 (P220A-3, read-out: EC50 (best-fit)): 4.5 nM
- Bottom (best-fit value) (P286A-1, run 1): -1.561
- LogEC50 (best-fit value) (P286A-1, run 1): -9.311
- Span (best-fit value) (P286A-1, run 1): 110.5
- Top (best-fit value) (P286A-1, run 1): 108.9
- EC50 (P286A-1, run 1, read-out: EC50 (best-fit value)): 0.489 nM
- Bottom (best-fit value) (P286A-2, run 2): -0.685
- LogEC50 (best-fit value) (P286A-2, run 2): -9.269
- Span (best-fit value) (P286A-2, run 2): 107.2
- Top (best-fit value) (P286A-2, run 2): 106.5
- EC50 (P286A-2, run 2, read-out: EC50 (best-fit value)): 0.539 nM
- Bottom (best-fit value) (P286A-3, run 3): -0.6493
- LogEC50 (best-fit value) (P286A-3, run 3): -9.076
- Span (best-fit value) (P286A-3, run 3): 92.48
- Top (best-fit value) (P286A-3, run 3): 91.83
- EC50 (P286A-3, run 3, read-out: EC50 (best-fit value)): 0.84 nM
- Best-fit Bottom (S279A-1): 9.876
- Best-fit Span (S279A-1): 98.05
- Best-fit Top (S279A-1): 107.9
- LogEC50 (S279A-1): -9.015
- EC50 (S279A-1, read-out: EC50): 0.966 nM
- Best-fit Span (S279A-2): 101.7
- Best-fit Top (S279A-2): 106.6
- LogEC50 (S279A-2): -8.897
- EC50 (S279A-2, read-out: EC50): 1.27 nM
- Best-fit Bottom (S279A-3): 4.156
- Best-fit Span (S279A-3): 86.31
- Best-fit Top (S279A-3): 90.47
- LogEC50 (S279A-3): -8.897
- Bottom (best-fit value) (S285A-1, run 1): 7.122
- LogEC50 (best-fit value) (S285A-1, run 1): -9.176
- Span (best-fit value) (S285A-1, run 1): 90.01
- Top (best-fit value) (S285A-1, run 1): 97.13
- EC50 (S285A-1, run 1, read-out: EC50 (best-fit value)): 0.667 nM
- Bottom (best-fit value) (S285A-2, run 2): 7.037
- LogEC50 (best-fit value) (S285A-2, run 2): -9.15
- Span (best-fit value) (S285A-2, run 2): 69.44
- Top (best-fit value) (S285A-2, run 2): 76.48
- EC50 (S285A-2, run 2, read-out: EC50 (best-fit value)): 0.707 nM
- Bottom (best-fit value) (S285A-3, run 3): -3.857
- LogEC50 (best-fit value) (S285A-3, run 3): -9.167
- Span (best-fit value) (S285A-3, run 3): 92.79
- Top (best-fit value) (S285A-3, run 3): 88.94
- EC50 (S285A-3, run 3, read-out: EC50 (best-fit value)): 0.68 nM
- Best-fit Bottom, cAMP inhibition (SSTR2 I195A-1, run 1): 1.138
